These results are taken from US8415480B2, “Thiazolidine carboxamide derivatives as modulators of the prostaglandin F receptor” (Merck Serono SA, priority 2002, dated 2013).

Structures are written as SMILES.

The Ki is a measure of affinity in units of concentration, obtained from inhibition or displacement. By IC50 is commonly meant the concentration that inhibits the measured activity by half. In general, ED50 refers to the dose at which the effect has come halfway, by size or by number of responders.

Experiment [1] has as its target T1, human Prostaglandin F2α receptor (Homo sapiens, UniProt P43088).
T1 construct: Human Prostaglandin F2α receptor (full-length cDNA) was subcloned into the pCEP4; expressed in transfected cells; host or cells: HEK 293 EBNA cells (membrane preparation)
Kind of experiment: In vitro competition binding assay on human Prostaglandin F2α receptor (Scintillation Proximity Assay, 3H PGF2-alpha radioligand). The note with it: scintillation proximity competition binding assay against Prostaglandin F2α as radioligand; read-out: Binding affinity for human Prostaglandin F2α receptor Ki. An excerpt:
The compounds of formula (II), were be subjected to the following in vitro and in vivo biological assays: • 1) In vitro competition binding assay on human Prostaglandin F2α receptor using a Scintillating Proximity Assay (SPA)
This assay allows to determine the binding affinity of the test compounds of formula (I) for the human Prostaglandin F2α receptor: […]
Human Prostaglandin F2α receptor (full-length cDNA) was subcloned into the pCEP4 (Invitrogen) vector and transfected together with the hygromycin resistance gene into HEK 293 EBNA cells by Calcium-phosphate co-precipitation method. Antibiotic resistant cells were grown under constant selection pressure in DMEM/F-12 medium supplemented with 2% fetal calf serum, 4 mM L-Glutamine and 8 ml/l Insulin-Transferrin-Selenium-mix (all Invitrogen) and 300 μg/ml hygromycin at 37° C. in a humidified atmosphere of 5% CO2 in air. At 48 h before harvesting, receptor expression was enhanced by adding 5 mM of Na-butyrate. Cells were washed twice with phosphate buffer saline, harvested and pelleted by centrifugation.
Cell pellet was lysed by Dounce homogenisation in 250 mM sucrose, 25 mM Tris-HCl pH 7.5, 10 mM MgCl2, 1 mM EDTA containing proteases inhibitors according to the manufacturer (Boehringer Mannheim) at 4° C. The lysate was centrifuged at 1000 g, 4° C. for 10 min and the supernatant was centrifuged at 160000 g, 4° C. for 60 min. The membranes pellets were resuspended in binding buffer (10 mM MES pH 6.2, 10 mM MgCl2, 1 mM EDTA containing proteases inhibitors), frozen in dry ice ethanol and stored at −80° C.
In vitro competition binding with Scintillation proximity assay (SPA) was performed in Corning NBS 96 wells plates. Briefly, 100 μl of binding buffer containing 15 to 30 μg of purified membranes, 4 mg/ml of wheat-germ agglutinin (WGA) SPA beads and 1 to 2 nM of ^3H PGF2-alpha (determined by Scatchard analysis) in 1% DMSO was incubated for 2 hours at room temperature. Non-specific binding was determined in the presence of 1 μM of non-radioactive Prostaglandin F2α. The concentrations of compounds (antagonist) used to compete with the radioactive ligand (agonist) were 10 μM, 3 μM, 1 μM, 300 nM, 100 nM, 30 nM, 10 nM, 1 nM, 100 pM, 10 pM. The radioactivity was counted on a Microbeta plate counter and the binding data were analysed using the iterative, non-linear, curve-fitting program, “Prism” (GraphPad Software, Inc).

Experiment [2] has as its system uterine contractions in non-pregnant Sprague Dawley female rats. The experiment is described as follows: PGF2α or fluprostenol-induced uterine contractions in non-pregnant rats. The note with it: 40 minutes after administration by i.v. route, cumulative dose of 30 mg/kg. Format: in vivo, rat. As to the method:
a) PGF2α or fluprostenol-induced uterine contractions in non-pregnant rats
Non-pregnant Sprague Dawley female rats (Charles River, Calco, Italy) weighing 200-300 g were used. They received an i.p. injection of 250 μg/kg diethylstilbestrol (DES) 18 and 24 hours before the experiment. On the day of the experiment, they were anaesthetized with urethane (1.05 g/kg, i.p.) and placed on a homeothermic operating table. The trachea was then isolated and cannulated with a suitable polyethylene (PE) tubing. A midline incision at the hypogastrium level was made, one uterine horn exposed and its tubal end closed (near the ovary) by a ligature with surgical silk. About 3 cm posteriorly to the first tie, the uterine horn wall was incited (close to the uterus body) and a PE240 tubing was inserted into the lumen and secured with surgical silk. After filling the internal cavity with 0.2 ml of sterile physiological saline solution, the catheter was connected to an amplifying/recording system (MacLab, ADInstruments Pty Ltd, Castle Hill, Australia) via a P23ID Gould Statham pressure transducer. One jugular vein was then isolated and cannulated with a PE60 catheter connected to a butterfly needle for the intravenous administration of Prostaglandin F2α (Sigma Chem. co., St. Louis, Mo., USA) and (±)fluprostenol (Cayman Chemicals, Ann Arbor, Mich., USA) or test compounds. […]

The target in experiment [3] is T1, human Prostaglandin F2α receptor. The experiment is described as follows: Inhibition of Prostaglandin F2α induced Ca2+-mobilization in HEK/EBNA cells expressing the Prostaglandin F2α receptor (FLIPR). Format: cell-based. Particulars: HEK EBNA cells expressing the human Prostaglandin F2α receptor, 2 times the EC50 of Prostaglandin F2α. As for the experimental part: • 3) In vitro functional assay 2: Inhibition of Prostaglandin F2α induced Ca^2′-mobilization in HEK/EBNA-cells expressing the Prostaglandin F2α receptor, as measured by FLIPR® (Fluorimetric Imaging Plate Reader).
HEK EBNA cells were seeded at 60000 cells/well in a Poly-L-Lysine precoated black/white bottom 96 well plate. […] Calcium mobilization was then measured on the FLIPR for 4 min. […] After the wash with FLIPR buffer, increasing concentrations of test compounds were added to the cells in FLIPR buffer and calcium mobilization was measured for 1 min.

In experiment [4] the test system is spontaneous uterine contractions in late-term pregnant Sprague Dawley female rats. Kind of experiment: Spontaneous uterine contractions in late-term pregnant rats. In kind it is in vivo, rat. An excerpt: b) Spontaneous Uterine Contractions in Late-Term Pregnant Rats: • (i) Preparation of the Experiment:
Late-term pregnant (19-21 days of gestation) Sprague Dawley female rats (Charles River, Calco, Italy) weighing 350-400 g were anesthetized with urethane (1.05 g/kg, i.p.) and placed on a homeothermic operating table. The trachea was isolated and cannulated with a suitable polyethylene (PE) tubing. A midline incision at the hypogastrium level was made, one pregnant uterine horn exposed and its tubal end closed (near the ovary) by a ligature with surgical silk. In the correspondence of the last foetus near the above-mentioned ovary, the uterine horn wall was incited taking care not to injure the adjacent placenta, and a PE240 tubing with a latex balloon (9 mm length when empty, capacity 0.1 ml; Radnoti, Monrovia, Calif., USA) on the top was inserted into the lumen and secured with surgical silk. After filling the internal cavity of the latex balloon with 0.1 ml of sterile physiological saline solution, the catheter was connected to an amplifying/recording system (MacLab, ADInstruments Pty Ltd, Castle Hill, Australia) via a P23ID Gould Statham pressure transducer. […]
The spontaneous contractile response of the uterus was quantified by evaluating the area under the curve (AUC) of the changes in the intra-luminal uterine pressure over time (by Chart V4.04 for Windows software, PowerLab ADInstruments, Castle Hill, Australia). The effect of the test compound on the spontaneous uterine contraction was evaluated as the percent variation of the AUC calculated in a 10-min interval following the administration of each dose of test compound as compared to the AUC in a 10-min interval before the administration of the first dose of test compound (basal value). When possible, a dose-response curve (of peak effect) was plotted and the relative ED50 value calculated (by S-Plus 2000 v. 4.6 statistical software, Mathsoft, Inc. Seattle, Wash., USA).

For experiment [5], the target named is T1, human Prostaglandin F2α receptor. The experiment is described as follows: Inhibition of Prostaglandin F2α induced IP3 synthesis in HEK/EBNA cells expressing the Prostaglandin F2α receptor. Particulars: HEK EBNA cells expressing the human Prostaglandin F2α receptor; 30 nM PGF2α. In kind it is cell-based.
Experimental: • 2) In vitro functional assay 1: Inhibition of Prostaglandin F2α induced IP3 (Inositol Triphosphate) Synthesis in HEK/EBNA-cells expressing the Prostaglandin F2α receptor
Cells were transfected by the calcium phosphate precipitation method with the appropriate plasmid and selected for hygromycinB resistance. The surviving colonies were assayed for their ability to retain specific [^3H] PGF2α binding. Selected clones were maintained in DMEM-F12 medium supplemented with 4 mM L-glutamine, 300 μg/ml hygromycinB and 2% fetal bovine serum (10% for cells expressing rFP).
Cells were detached with PBS/EDTA, washed with inositol-free DMEM-F12 medium and seeded at 80000 cells/well in a Poly-L-Lysine precoated 12 well plate. Cells were labelled with myo-[^3H] Inositol at 4 μCi/ml in inositol-free DMEM-F12 supplemented with 1% fetal bovine serum, 4 mM L-glutamine and 300 μg/ml hygromycinB. After 24 hours (rFP expressing cells) or 40 hours (hFP expressing cells), the medium was removed and cells were pre-incubated for 10 min in assay buffer (DMEM-F12 without Inositol, 20 mM Hepes, 0.1% BSA) containing 20 mM LiCl at 37° C. For agonist dose response, cells were then stimulated for 1 hour at room temperature with increasing concentration of PGF2α, in assay buffer. […] For agonist activity determination of the test compounds themselves, the test compounds were added to the cells at 10 μM and 1 μM for 1 hour at room temperature.
800 μl were then transferred to 400 μl of neutralizing solution (0.72N KOH, 0.6 M KHCO3), vortexed, and sedimented for at least 2 hours at 4° C. After centrifugation of 15 min. at 2500 g, 1 ml of the supernatant was loaded on a chromatography column, followed by two washes with 10 ml of water. The IP3 to be quantified were eluted with 3 ml elution buffer (1M ammonium formate, 0.1 M formic acid) and radioactivity was counted on a Beckman LS6000TA scintillation counter to measure the amount of phosphorylated [^3H] inositol.

T1 sequence (P43088 whole entry): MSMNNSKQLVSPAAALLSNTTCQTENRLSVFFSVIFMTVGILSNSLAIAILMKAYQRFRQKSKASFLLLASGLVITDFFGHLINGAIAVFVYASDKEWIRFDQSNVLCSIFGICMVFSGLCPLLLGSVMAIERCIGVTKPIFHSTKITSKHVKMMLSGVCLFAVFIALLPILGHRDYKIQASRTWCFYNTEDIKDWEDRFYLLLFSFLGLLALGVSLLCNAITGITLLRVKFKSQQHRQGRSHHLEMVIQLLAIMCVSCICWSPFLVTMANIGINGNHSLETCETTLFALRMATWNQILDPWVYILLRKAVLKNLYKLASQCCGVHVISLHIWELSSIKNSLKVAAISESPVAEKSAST

As for `O=C(NC(CCO)c1ccco1)C1SCCN1S(=O)(=O)c1ccc(-c2ccccc2)cc1` (centres unmarked) [3-([1,1′-biphenyl]-4-ylsulfonyl)-N-[1-(2-furyl)-3-hydroxypropyl]-1,3-thiazolidine-2-carboxamide], the Ki in experiment [1] amounted to 620 nM.

As for `O=C(NC(CN1CCCC1)c1ccccc1)C1SCCN1S(=O)(=O)c1ccc(-c2ccccc2)cc1` (centres unmarked) [3-([1,1′-biphenyl]-4-ylsulfonyl)-N-[1-phenyl-2-(1-pyrrolidinyl)ethyl]-1,3-thiazolidine-2-carboxamide], the Ki in experiment [1] is 170 nM.

Turning to `O=C(NCCc1ccccc1)NCc1ccc(CNC(=O)C2SCCN2S(=O)(=O)c2ccc(-c3ccon3)s2)cc1` (centres unmarked) [3-{[5-(3-isoxazolyl)-2-thienyl]sulfonyl}-N-{4-[({[(2-phenylethyl)amino]carbonyl}amino)methyl]benzyl}-1,3-thiazolidine-2-carboxamide], the Ki in experiment [1] was determined as 1100 nM. Still for that read-out and setting: then `Cc1c(S(=O)(=O)N2CCSC2C(=O)N[C@@H](Cc2ccccc2)C(=O)O)sc2ccc(Cl)cc12` (stereo partly drawn) [(2S)-2-[({3-[(5-chloro-3-methyl-1-benzothien-2-yl)sulfonyl]-1,3-thiazolidine-2-yl}carbonyl)amino]-3-phenylpropanoic acid], with 330 nM.

`O=C(N[C@@H](CCO)c1ccccc1)[C@@H]1SCCN1S(=O)(=O)c1ccc(-c2ccccc2)cc1` [Example 1, (2S)-3-([1,1′-biphenyl]-4-ylsulfonyl)-N-[(1S)-3-hydroxy-1-phenylpropyl]-1,3-thiazolidine-2-carboxamide]: the “inhibition of uterine contractions” value in experiment [2] is on record as 26%; in experiment [4] (i.v. route (infusion over 10 minutes), cumulative dose of 30 mg/kg), > 50%. Also, the inhibition constant (Ki) in experiment [1] was 65 nM. Besides, the IC50 in experiment [3] was 48 nM; in experiment [5], 185 nM. Further, the ED50 in experiment [4] (Rattus norvegicus, iv, 10 min, i.v. infusion over 10 minutes, spontaneous uterine contractions, read-out: calculated ED50 value) was 28 mg/kg. In addition, the “calculated ED50 value” in experiment [4] (i.v. infusion over 10 minutes, spontaneous uterine contractions) was 2.8 mg/kg/min. In the case of `CCC(C)(C)c1ccc(S(=O)(=O)N2CCS[C@H]2C(=O)N[C@@H](CCO)c2ccccc2)cc1` [Example 10, (2S)—N-[(1S)-3-hydroxy-1-phenylpropyl]-3-[(4-tert-pentylphenyl)sulfonyl]-1,3-thiazolidine-2-carboxamide], in experiment [1], the Ki came out at 120 nM. `O=C(NC(CCO)c1c(F)cccc1F)C1SCCN1S(=O)(=O)c1ccc(-c2ccccc2)cc1` (centres unmarked) [Example 14, 3-([1,1′-biphenyl]-4-ylsulfonyl)-N-[1-(2,6-difluorophenyl)-3-hydroxypropyl]-1,3-thiazolidine-2-carboxamide]: in experiment [1], the Ki amounted to 50 nM. Take `CN(CC[C@H](NC(=O)[C@@H]1SCCN1S(=O)(=O)c1ccc(-c2ccccc2)cc1)c1ccccc1)Cc1ccccc1` [Example 19]: the Ki in experiment [1] stood at 20 nM. Take `CN(CCO)CC[C@H](NC(=O)[C@@H]1SCCN1S(=O)(=O)c1ccc(-c2ccccc2)cc1)c1ccccc1` [Example 21, (2S)-3-([1,1′-biphenyl]-4-ylsulfonyl)-N-{(1S)-3-[(2-hydroxyethyl)(methyl)-amino]-1-phenylpropyl}-1,3-thiazolidine-2-carboxamide]: the values for the IC50 in experiment [3] and in experiment [5] were 202 nM and 225 nM, respectively. For the molecule `O=C(N[C@H](c1ccccc1)c1ccccn1)[C@@H]1SCCN1S(=O)(=O)c1ccc(-c2ccccc2)cc1` [Example 62, (2S)-3-(1,1′-biphenyl-4-ylsulfonyl)-N—[(R)-phenyl(pyridin-2-yl)methyl]-1,3-thiazolidine-2-carboxamide], in experiment [1], the Ki came out at 55 nM. In addition, the values for the IC50 in experiment [3] and in experiment [5] were 20 nM and 15 nM, respectively. Consider `CC(=O)NCCNCCC(NC(=O)C1SCCN1S(=O)(=O)c1ccc(-c2ccccc2)cc1)c1ccccc1` (centres unmarked) [N-(3-{[2-(acetylamino)ethyl]amino}-1-phenylpropyl)-3-([1,1′-biphenyl]-4-ylsulfonyl)-1,3-thiazolidine-2-carboxamide], for which the Ki in experiment [1] worked out at 1150 nM.
